The record followed here is US20140213575A1, “6H-Thieno[3,2-f][1,2,4]triazolo[4,3-a][1,4]diazepines” (BAYER INTELLECTUAL PROPERTY GMBH, priority 2011, published 2014).

Test [1] concerns LNCaP cells. Put plainly: Cellular proliferation assay (alamarBlue) LNCaP. The conditions noted are these: Homo sapiens, 168 hours, read-out: Prostate LNCaP IC50. Format: cell-based. The procedure:
(§1) In accordance with the invention, the ability of the substances to inhibit the proliferation of various cell lines was determined. Cell viability was determined by means of the alamarBlue® reagent (Invitrogen). […] After incubation overnight at 37° C., the fluorescence values were determined (CI values). […] Then the fluorescence values were determined (CO values).
(§2) The substances were investigated in the cell lines in Table 1, which for example represent the stated indications: […]
A general note: The colour change of resazurin is a common sign of viable cells or microbes.

Test [2] has as its target T1, BRD4(1) (Homo sapiens, UniProt O60885).
T1 construct: BRD4(1) (amino acids 44-168); made in house; host or cells: E. coli
Put plainly: Binding assay BRD4/acetylated peptide H4 (TR-FRET/HTRF protein-protein interaction assay). The settings on record: inhibition of interaction BRD4(1) / acetylated histone H4 peptide, TR-FRET. An excerpt: Binding Assay BRD4/Acetylated Peptide H4 (“PRQ”)
To assess the BRD4 binding strength of the substances described in this application, their capacity for dose-dependent inhibition of the interaction between BRD4 and acetylated histone H4 was quantified.
For this purpose, a time-resolved fluorescence resonance energy transfer (TR-FRET) assay was used, which measures the binding between N-terminally His6-tagged BRD4(1) (amino acids 44-168) and a synthetic acetylated histone H4 (Ac-H4) peptide with the sequence GRGK(Ac)GGK(Ac)GLGK(Ac)GGAK(Ac)RHGSGSK-biotin. The recombinant BRD4 protein (produced in-house) was expressed in E. coli and was purified by (Ni-NTA) affinity chromatography and (Sephadex G-75) size-exclusion chromatography. The Ac-H4 peptide can be purchased for example from Biosyntan (Berlin, Germany).
In the assay, typically 11 different concentrations of each substance (0.1 nM, 0.33 nM, 1.1 nM, 3.8 nM, 13 nM, 44 nM, 0.15 μM, 0.51 μM, 1.7 μM, 5.9 μM and 20 μM) were measured as duplicates on the same microtitre plate. For this, 100-fold concentrated solutions in DMSO were prepared by serial dilutions (1:3.4) of a 2 mM stock solution in a clear, 384-well microtitre plate (Greiner Bio-One, Frickenhausen, Germany). From this, 50 nl was transferred to a black assay plate (Greiner Bio-One, Frickenhausen, Germany). The assay was started by supplying 2 μl of a 2.5-fold concentrated BRD4 solution (usually 10 to 50 nM final concentration in the 5 μl of the reaction volume) in aqueous assay buffer [50 mM HEPES pH 7.5, 50 mM sodium chloride (NaCl), 0.25 mM CHAPS and 0.05% serum albumin (BSA)] to the substances in the assay plate. This was followed by a 10-minute incubation step at 22° C. for the pre-equilibration of putative complexes between BRD4 and the substances.
The mixture was then incubated in the dark for one hour at 22° C. and then overnight at 4° C. The formation of BRD4/Ac-H4 complexes was determined by measuring the resonance energy transfer from the streptavidin-Eu-cryptate to the anti-6His-XL665 antibody that is present in the reaction. For this, the fluorescence emissions at 620 nm and 665 nm were measured after excitation at 330-350 nm in a TR-FRET measuring instrument, e.g. a Rubystar or Pherastar (both from BMG Lab Technologies, Offenburg, Germany) or a Viewlux (Perkin-Elmer). The ratio of the emissions at 665 nm and at […] was taken as an indicator of the amount of BRD4/Ac-H4 complexes formed.
The data obtained (ratio) were normalized, wherein 0% inhibition corresponded to the mean value from the measured values of a set of controls (usually 32 data points), in which all reagents were contained. 50 nl DMSO (100%) was used instead of test substances. Inhibition of 100% corresponded to the mean value from the measured values of a set of controls (usually 32 data points), in which all reagents except BRD4 were contained. The IC50 value was determined by regression analysis based on a 4-parameter equation (minimum, maximum, IC50, Hill; Y=Max+(Min−Max)/(1+(X/IC50)^Hill)) using Bayer's own analysis software.
On the technique in general: TR-FRET usually uses a lanthanide donor and a delayed reading to cut background.

The test system of test [3] is MCF-7 cells. Put plainly: Cellular proliferation assay (alamarBlue) MCF-7. Format: cell-based. The conditions noted are these: Homo sapiens, MCF7, 96 hours, read-out: Breast MCF-7 IC50. The procedure:
as §1, §2

In test [4] the test system is MOLM-13 cells. The experiment in a line: Cellular proliferation assay (alamarBlue) MOLM-13. Format: cell-based. The conditions noted are these: Homo sapiens, 96 hours, read-out: Leukaemia MOLM-13 IC50. The procedure:
as §1, §2

The test system of test [5] is HeLa-MaTu cells. Put plainly: Cellular proliferation assay (alamarBlue) HeLa-MaTu. Format: cell-based. The conditions noted are these: 96 hours, read-out: Cervix HeLa-MaTu IC50. The procedure: as §1, §2
For test [6], the system named is MDA-MB-231 cells. Put plainly: Cellular proliferation assay (alamarBlue) MDA-MB-231. The conditions noted are these: Homo sapiens, 96 hours, read-out: Breast MDA-MB-231 IC50. Format: cell-based. The procedure: as §1, §2
Test [7] deals with MOLP-8 cells. Put plainly: Cellular proliferation assay (alamarBlue) MOLP-8. Format: cell-based. The conditions noted are these: Homo sapiens, 120 hours, read-out: Multiple myeloma MOLP-8 IC50. The procedure:
as §1, §2

The test system of test [8] is VCaP cells. The experiment in a line: Cellular proliferation assay (alamarBlue) VCaP. The conditions noted are these: Homo sapiens, 168 hours, read-out: Prostate VCaP IC50. Format: cell-based. The procedure:
as §1, §2

Test [9] concerns B16F10 cells. Put plainly: Cellular proliferation assay (alamarBlue) B16F10. Format: cell-based. The conditions noted are these: Mus musculus, B16-F10, 96 hours, read-out: Melanoma B16F10 IC50. The procedure:
as §1, §2

In test [10] the test system is LAPC-4 cells. The experiment in a line: Cellular proliferation assay (alamarBlue) LAPC-4. Format: cell-based. The conditions noted are these: Homo sapiens, LAPC4, 168 hours, read-out: Prostate LAPC-4 IC50. The procedure:
as §1, §2

pIC50: −log10 of the molar value.

The pIC50 is the IC50 on a negative log10 scale, so that one unit is a factor of ten. `Cc1sc2c(c1C)C(c1ccc(Cl)cc1)=N[C@@H](CC(=O)NC1C[C@H]3CCC[C@@H](C1)N3C(=O)OC(C)(C)C)c1nnc(C)n1-2` (stereo partly drawn) [Example 3, (1R,5S)-tert-Butyl-3-({2-[(S)-4-(4-chlorophenyl)-2,3,9-trimethyl-6H-thieno[3,2-f][1,2,4]triazolo[4,3-a][1,4]diazepin-6-yl]acetyl}amino)-9-azabicyclo[3.3.1]nonane-9-carboxylate]: the pIC50 was 7.77 in [1]; 6.62 in test [2]; 7.70 in [3]; 7.08 in test [4]; 7.40 in test [5]; 6.89 in [6]. Further, the negative logarithm of the IC50 (pIC50) in test [7] was 6.77; in [8] it was 7.19; in test [9] it was 7.54; in test [10], 7.39.
Consider `Cc1sc2c(c1C)C(c1ccc(Cl)cc1)=N[C@@H](CC(=O)NC1C[C@H]3CCC[C@@H](C1)N3)c1nnc(C)n1-2` (stereo partly drawn) [Example 4, N-[(1R,5S)-9-Azabicyclo[3.3.1]non-3-yl]-2-[(S)-4-(4-chlorophenyl)-2,3,9-trimethyl-6H-thieno[3,2-f][1,2,4]triazolo[4,3-a][1,4]diazepin-6-yl]acetamide], for which the pIC50 in test [1] is 6.45; in [2], 7.82; in test [3], 6.52; in test [4], 7.24; in test [5] it was 6.12; in test [6], 6.22. The pIC50 in test [7] is 6.62; in test [8] it was 7.15; in test [9], 5.98; in test [10], 6.64.
With `Cc1sc2c(c1C)C(c1ccc(Cl)cc1)=N[C@@H](CC(=O)N1CC3CCC(C1)O3)c1nnc(C)n1-2` [Example 5, 2-[(S)-4-(4-Chlorophenyl)-2,3,9-trimethyl-6H-thieno[3,2-f][1,2,4]triazolo[4,3-a][1,4]diazepin-6-yl]-1-(8-oxa-3-azabicyclo[3.2.1]oct-3-yl)ethan-1-one], the pIC50 in test [1] is 7.40; in test [2], 7.11; in [3] it was 7.03; in [4], 6.90; in [5], 6.48; in [6], 6.86. The pIC50 in [7] is 6.92; in test [8] it was 7.17; in test [9], 7.04; in [10] it was 7.19.
In the case of `Cc1sc2c(c1C)C(c1ccc(Cl)cc1)=N[C@@H](CC(=O)N1CCC3(COC3)C1)c1nnc(C)n1-2` [Example 6, 2-[(S)-4-(4-Chlorophenyl)-2,3,9-trimethyl-6H-thieno[3,2-f][1,2,4]triazolo[4,3-a][1,4]diazepin-6-yl]-1-(2-oxa-6-azaspiro[3.4]oct-6-yl)ethan-1-one], the pIC50 is 7.44 in test [1]; 7.54 in test [2]; 7.01 in test [3]; 6.88 in test [4]; 6.60 in [5]; 6.91 in [6]. Moreover, the negative logarithm of the IC50 (pIC50) was 6.96 in test [7], 7.19 in test [8], 7.06 in [9] and 7.14 in test [10].
On to `Cc1sc2c(c1C)C(c1ccc(Cl)cc1)=N[C@@H](CC(=O)N1CCC3(CC1)COC3)c1nnc(C)n1-2` [Example 7], for which the pIC50 is 6.99 in test [1]; 7.49 in test [2]; 7.23 in [3]; 7.17 in test [4]; 6.78 in test [5]; 7.16 in test [6]. The pIC50 in [7] is 7.29; in [8], 7.46; in [9], 7.32; in test [10], 7.49.
Consider `Cc1sc2c(c1C)C(c1ccc(Cl)cc1)=N[C@@H](CC(=O)N1CC3CCC1CC3)c1nnc(C)n1-2` [Example 8, (S)-1-(2-Azabicyclo[2,2,2]oct-2-yl)-2-[(6S)-4-(4-chlorophenyl)-2,3,9-trimethyl-6H-thieno[3,2-j][1,2,4]triazolo[4,3-a][1,4]diazepin-6-yl]ethanone], for which the pIC50 in [2] is 7.08; in [4], 5.97; in test [6] it was 6.44; in test [9], 6.53; in test [10], 6.88.
The matching figures for `Cc1sc2c(c1C)C(c1ccc(Cl)cc1)=N[C@@H](CC(=O)N1C3CCC1CC3)c1nnc(C)n1-2` [Example 9, (S)-1-(7-Azabicyclo[2.2.1]hept-7-yl)-2-[(6S)-4-(4-chlorophenyl)-2,3,9-trimethyl-6H-thieno[3,2-f][1,2,4]triazolo[4,3-a][1,4]diazepin-6-yl]ethanone]: 7.12, 6.08, 6.54, 6.38 and 7.06.
